No end group written: not given here. Acr = acridine on the lysine ε-amine; PEG = not defined here
How the values were obtained:
[1] = tested on: DC-SIGN (+) and (−) CHO cells; assay: in vitro transfection with glycopeptide DNA polyplexes; assay type: cell-based, human; conditions: luciferase, 24 hrs
Protocol: DC-SIGN (+) CHO cells (1×10^5) were plated in 6-well plates in triplicate in 1 ml DMEM high glucose supplemented with 7% FBS and 1% MEM non-essential amino acids. After incubation for 24 hrs at 37° C. in 5% CO2, the media was removed, the cells were washed with 1 ml DPBS, replaced with 1 ml DMEM high glucose media supplemented with 2% FBS and 0.3% MEM non-essential amino acids.
Cells were transfected in triplicate for 24 hrs with pGL3 polyplexes (1 μg DNA and 0.6 nmol of glycopeptide in a total volume of 30 μl). The efficiency of glycopeptide DNA polyplex transfection was compared with PEI-DNA transfection performed by combining 1 μg DNA with 1.2 μg of PEI (N:P of 9) in 100 μl of 5 mM Hepes, 270 mM mannitol, pH 7.4. After 24 hrs, cells were washed with 2 ml of DPBS and lysed with 0.5 ml of lysis buffer (25 mM tris chloride, 1 mM EDTA, 8 mM magnesium chloride, 1% Triton X-100, pH 7.8) for 10 min at 4° C. […] The relative light units were determined with 10 sec integration after automatic injection of 100 μl of 0.43 mM D-luciferin. Protein concentrations were measured by a BCA assay with bovine serum albumin as a standard (Smith, P. K., Krohn, R. I., Hermanson, G. T., Mallia, A. K., Gartner, F. H., Provenzano, M. D., Fujimoto, E. K., Goeke, N. M., Olson, B. J., and Klenk, D. C. (1985) Measurement of protein using bicinchoninic acid. Anal Biochem 150, 76-85). […]

plasmid = assay: DNA band shift assay of Man9-(Acr-Lys)6; assay type: binding
Excerpt: (§1) We tested Man9-N-glycan polyacridine peptides as a DNA vaccine adjuvant for use in combination with an intramuscular electroporation apparatus. […] The Man9-(Acr-Lys)6 (SEQ ID NO: 42) that we used for this study has the following structure of In certain embodiments the compound is Formula IVb: […]

Mice = assay: IM-EP of Man9-(Acr-Lys)6 DNA in mice; assay type: in vivo; conditions: intramuscular electroporation, 1 μg DNA
Protocol: as §1
The inventors obtained mouse data illustrating the electroporation apparatus expression of Man9-(Acr-Lys)6 (SEQ ID NO: 42) DNA (1 μg) at 0 and 0.012 nmoles of Man9-(Acr-Lys)6 (SEQ ID NO: 42) per μg of DNA (FIG. 32). The luciferase gene expression was equivalent at 0, 0.003 and 0.006 nmols of Man9 per μg of DNA, and then decreased at 0.0125 nmols of Man9 and higher. 0.0125 nmols of Man9-(Acr-Lys)6 (SEQ ID NO: 42) per μg of DNA corresponds 40 copies of Man9 per plasmid.

liver = assay: hydrodynamic stimulation and bioluminescence imaging of luciferase expression; assay type: in vivo, mice; conditions: 1 μg pGL3 dose, HD stimulation after 30 min, 24 hrs
Protocol: pGL3 (1 μg) was prepared in a volume of normal saline corresponding to 9 wt/vol % of the mouse's body weight (1.8-2.25 ml based on 20-25 g mice). The DNA dose was administered by tail vein to 4-5 mice in 5 sec according to a published procedure (Liu F, Song Y, Liu D. Hydrodynamics-based transfection in animals by systemic administration of plasmid DNA. Gene Ther 1999; 6: 1258-1266; Zhang G, Budker V, Wolff J A. High levels of foreign gene expression in hepatocytes after tail vein injections of naked plasmid DNA. Human Gene Therapy 1999; 10: 1735-1737). Mice (4-5) were also dosed tail vein with 1 μg of PEGylated polyacridine polyplex in 50 μl of HBM (5 mM Hepes, 0.27 M mannitol, pH 7.4). At times ranging from 5-120 min, a stimulatory hydrodynamic dose of normal saline (9 wt/vol % of the body weight) was administered over 5 sec. At 24 hrs post-DNA dose, mice were anesthetized by 3% isofluorane, then administered an i.p. dose of 80 μl (2.4 mg) of D-luciferin (30 μg/μl in phosphate-buffered saline). At 5 min following the D-luciferin dose, mice were imaged for bioluminescence (BLI) on an IVIS Imaging 200 Series (Xenogen). BLI was performed in a light-tight chamber on a temperature-controlled, adjustable stage while isofluorane was administered by a gas manifold at a flow rate of 3%. Images were acquired at a ‘medium’ binning level and a 20 cm field of view. Acquisition times were varied (1 sec^−1 min) depending on the intensity of the luminescence. The Xenogen system reported bioluminescence as photons/sec/cm^2/seradian in a 2.86 cm diameter region of interest covering the liver. The integration area was transformed to pmols of luciferase in the liver using a previously reported standard curve (Rettig G et al. Quantitative Bioluminscence Imaging of Transgene Expression In Vivo. Analytical Biochemistry 2006; 335: 90-94). The results were determined to be statistically significant (p≦0.05) based on a two-tailed unpaired t-test.

[2] = following i.v. dosing; Collard et al. 2000; cited from earlier work

## Cys-(Acr-Lys)4: DNA binding polyacridine peptide with N-terminal Cys, prepared with Fmoc-Lys(Acr); SEQ ID NO: 23
[1]
  selectivity of gene transfer for CHO (+) or (−) cells: did not demonstrate selectivity

## Man9-(Acr-Lys)6: Iodoacetamide Man9 N-glycan reacted with Cys(Acr-Lys)6; Formula IVb (K(Acr)KK(Acr)KK(Acr)KK(Acr)KK(Acr)KK(Acr)K; not fully specified (N-terminus); also: Man9 N-glycan attached via iodoacetamide to a Cys not shown in chain)
plasmid
  copies bound to plasmid: up to 40 copies
Mice
  luciferase gene expression at 0, 0.003 and 0.006 nmols of Man9 per μg of DNA: equivalent
  luciferase gene expression at 0.0125 nmols of Man9 and higher: decreased

## PEG-Cys-Trp-Lys18: PEGylated polylysine peptide control, SEQ ID NO: 34 (C(PEG)WKKKKKKKKKKKKKKKKKK; reading uncertain)
liver
  stimulated luciferase expression of controls: failed to produce measurable expression
liver; listed as PEGylated-Cys-Trp-Lys18
  stimulated luciferase expression of controls: no detectable luciferase expression
[2]
  complete metabolism of plasmid DNA in the circulation: ≤ 3 min
